This is an account of results in paper PMC12434071, “Platinum-group metal half-sandwich complexes of 1-(α-D-glucopyranosyl)-4-hetaryl-1,2,3-triazoles: synthesis, solution equilibrium studies, and investigation of their anticancer and antimicrobial activities” (Frontiers in Chemistry, 2025).

In one experiment the test system is A2780 cells. The experiment in a line: SRB assay on A2780 cells. In kind it is cell-based. The settings on record: maximal inhibition; 48 h treatment; maximum concentration 100 µM. Here is the method: For MTT assays, 4 × 10^3 A2780 cells were plated into 96-well plates, and for SRB assays, 1.5 × 10^3 A2780 cells were plated into 96-well plates. Cells were treated with the compounds in the concentrations indicated for either 4 h for an MTT assay or for 48 h for an SRB assay. Data are represented as average ± SD, from four biological replicates, with the exception of the MTT dataset of Ir-2b and the SRB datasets of 2b, Ru/Ir-2b, and Ir-3a, which were derived from three biological replicates. Individual assays were performed in duplicate. Values were normalized for vehicle-treated cells, and the absorbance for vehicle-treated cells equals 1. Data are represented as fold change compared to vehicle-treated controls. Normality was assessed using the D’Agostino–Pearson test. Statistical significance was assessed using a two-way ANOVA test followed by Tukey’s post hoc test. For better visibility, normality, transformations, statistical tests, and p values are presented in an MS Excel sheet at https://figshare.com/s/3a0aa60b66f3f746f41e. Color code: black—free ligand (2a,b or 3a), khaki—ruthenium complex (Ru-2a,b or Ru-3a), green—iridium complex (Ir-2a,b or Ir-3a).  FIGURE 7 The ruthenium, osmium, and iridium complexes of ligands 4a, 4b, and 5a are cytostatic on ovarian cancer models with a good therapeutic index. For SRB assays, 1.5 × 10^3 A2780 cells, 1.5 × 10^3 ID8 cells, or 4 × 10^3 primary fibroblasts were plated into 96-well plates. Cells were treated with the compounds in the concentrations indicated for 48 h. Data are represented as average ± SD, from four biological replicates on A2780 and human primary fibroblasts, except in the case of Os complexes, where experiments were performed in three biological replicates. ID8 cells were assessed in three biological replicates. Individual assays were performed in duplicate. Values were normalized for vehicle-treated cells, and the absorbance for vehicle-treated cells equals 1. Normality was assessed using the D’Agostino–Pearson test. Statistical significance was assessed using a two-way ANOVA test followed by Tukey’s post hoc test. For better visibility, normality, transformations, statistical tests, and p values are presented in an MS Excel sheet at https://figshare.com/s/3a0aa60b66f3f746f41e. Color code: black—free ligand (4a,b or 5a), khaki—ruthenium complex (Ru-4a,b), blue—osmium complex (Os-4a,b or Os-5a), green—iridium complex (Ir-4a,b), and red—rhodium complex (Rh-4a,b). An SRB assay measures protein content of cells in correlation with the cell number in an assay well and can therefore be used to assess cell proliferation or long-term cytostasis ([Skehan et al., 1990]). Cells were seeded into 96-well plates the day before the treatment for the assay. Cells were treated with the various compounds for 48 h. Then, the medium was removed, and cells were fixed with 10% trichloroacetic acid. Fixed cells were washed in distilled water three times, followed by staining with SRB (0.4 m/V% dissolved in 1% acetic acid) for 10 min. Stained cells were washed in 1% acetic acid five times; the acetic acid was removed, and the cells were left to dry. Protein-bound SRB was released by adding 100 µL of 10 mM Tris base. Plates were measured in a plate photometer (Thermo Scientific Multiscan GO spectrophotometer, Waltham, MA, United States) at 540 nm. Certain wells were designated to contain vehicle-treated cells on each plate. […] Statistical analysis was performed using version 8.0.1 of GraphPad Prism. Values were tested for normal distribution using the D’Agostino–Pearson or Shapiro–Wilk normality tests. When necessary, values were log-normalized or normalized using the Box–Cox or two-step normalization method ([Box and Cox, 1964]), as indicated in the MS Excel file listing the values at https://figshare.com/s/3a0aa60b66f3f746f41e. […]
In general terms: In SRB staining, fixed cells bind dye roughly in proportion to their protein.

Experiment [1] concerns human primary dermal fibroblasts. Put plainly: MTT reduction assay on human primary dermal fibroblasts. In kind it is cell-based. The settings on record: maximal inhibition; 4 h treatment; maximum concentration 100 µM. Here is the method:
FIGURE 5 The ruthenium, osmium, and iridium complexes of ligands 4a, 4b, and 5a decrease MTT reduction. For MTT assays, 4 × 10^3 A2780 cells, 3 × 10^3 ID8 cells, or 6 × 10^3 human primary fibroblasts were plated into 96-well plates. Cells were treated with the compounds in the concentrations indicated for 4 h. Data are represented as average ± SD, from four biological replicates on A2780, and from three biological replicates on ID8 and human primary fibroblasts. For the datasets of 5a and Os-5a on human primary fibroblasts, the data represent four biological replicates. Individual assays were performed in duplicate. Values were normalized for vehicle-treated cells, and the absorbance for vehicle-treated cells equals 1. Normality was assessed using the D'Agostino-Pearson test. Statistical significance was assessed using a two-way ANOVA test followed by Tukey's post hoc test. For better visibility, normality, transformations, statistical tests, and p values are presented in an MS Excel sheet at https://figshare.com/s/3a0aa60b66f3f746f41e. Color code: black-free ligand (4a,b or 5a), khaki-ruthenium complex (Ru-4a,b), green-iridium complex (Ir-4a,b), blue-osmium complex (Os-4a,b or Os-5a), and red-rhodium complex (Rh-4a,b). An MTT reduction assay measures the activity of mitochondrial complex I and can be used to detect toxicity ([[…] et al., 2016]). The assay was performed in a manner similar to that described by [[…] et al. (2023b)]. Briefly, cells were plated into 96-well plates the day before the assay. Cells were treated with the compounds for 4 h; then, MTT was added to a 0.5 mg/mL final concentration, and cells were incubated at 37°C in a cell incubator for 40-60 min, as a function of the cell line being assessed. The culture medium was removed, the reduced MTT dye was dissolved in dimethylsulfoxide, and plates were measured in a plate photometer (Thermo Scientific Multiscan GO spectrophotometer, Waltham, MA, United States) at 540 nm. […] In calculations, the readings for these wells were considered to 1, and all readings were expressed relative to these values. […]
Background: Tetrazolium dyes change colour on reduction, which living cells bring about.

For `O=C(OC[C@H]1O[C@H](n2cc(-c3ccc4ccccc4n3)nn2)[C@H](OC(=O)c2ccccc2)[C@@H](OC(=O)c2ccccc2)[C@@H]1OC(=O)c1ccccc1)c1ccccc1` [Complex 4b, 1-(2’,3’,4’,6’-Tetra-O-benzoyl-α-D-glucopyranosyl)-4-(quinolin-2-yl)-1,2,3-triazole], the “A2780 SRB max %” value in the experiment with A2780 cells stood at 0%. For the same molecule, in experiment [1], the “Fibroblast MTT max %” value was 0%.
On to `OC[C@H]1O[C@H](n2cc(-c3ccccn3)nn2)[C@H](O)[C@@H](O)[C@@H]1O` [Complex 3a, 1-(α-D-Glucopyranosyl)-4-(pyridin-2-yl)-1,2,3-triazole], for which the “A2780 SRB max %” value with A2780 cells amounted to 0%.
In the case of `CCCCC(=O)OC[C@H]1O[C@H](n2cc(-c3ccccn3)nn2)[C@H](OC(=O)CCCC)[C@@H](OC(=O)CCCC)[C@@H]1OC(=O)CCCC` [Complex 5a, 1-(2’,3’,4’,6’-Tetra-O-pentanoyl-α-D-glucopyranosyl)-4-(pyridin-2-yl)-1,2,3-triazole], the “A2780 SRB max %” value in the experiment with A2780 cells was 33.92%. Moreover, the “Fibroblast MTT max %” value in experiment [1] stood at 15.72%.
The like results for `O=C(OC[C@H]1O[C@H](n2cc(-c3ccccn3)nn2)[C@H](OC(=O)c2ccccc2)[C@@H](OC(=O)c2ccccc2)[C@@H]1OC(=O)c1ccccc1)c1ccccc1` [Complex 4a, 1-(2’,3’,4’,6’-Tetra-O-benzoyl-α-D-glucopyranosyl)-4-(pyridin-2-yl)-1,2,3-triazole] were, in that order, 29.51% and 0%.
